Measurements: PubChem BioAssay AID1963830 (Molecular Pharmacology Branch, DTP, NCI, 2024)

Test system: 922993-354-T-J3-PDC complex spheroid viability
Assay: Anticancer human tumor 922993-354-T-J3-PDC patient-derived endometrial carcinoma cell line growth inhibition [POLQ]
Settings: for IC50: curve of first compound; for viability, T/C: stronger effect = lower value
In short: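 Three-cell-type spheroids modelling solid tumor plus stroma served as the readout system; POL inhibitors were tested individually and in combination, concentration ranges set by clinical Cmax where known.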

[1] = second compound 0.0316 µM, first compound 0.0316 µM
[2] = second compound 0.0316 µM, first compound 0.1 µM
[3] = second compound 0.0316 µM, first compound 0.316 µM
[4] = second compound 0.0316 µM, first compound 1 µM
[5] = second compound 0.0316 µM, first compound 3.16 µM
[6] = second compound 0.0316 µM, first compound 10 µM
[7] = second compound 0.1 µM, first compound 0.0316 µM
[8] = second compound 0.1 µM, first compound 0.1 µM
[9] = second compound 0.1 µM, first compound 0.316 µM
[10] = second compound 0.1 µM, first compound 1 µM
[11] = second compound 0.1 µM, first compound 3.16 µM
[12] = second compound 0.1 µM, first compound 10 µM
[13] = second compound 0.316 µM, first compound 0.0316 µM
[14] = second compound 0.316 µM, first compound 0.1 µM
[15] = second compound 0.316 µM, first compound 0.316 µM
[16] = second compound 0.316 µM, first compound 1 µM
[17] = second compound 0.316 µM, first compound 3.16 µM
[18] = second compound 0.316 µM, first compound 10 µM
[19] = second compound 1 µM, first compound 0.0316 µM
[20] = second compound 1 µM, first compound 0.1 µM
[21] = second compound 1 µM, first compound 0.316 µM
[22] = second compound 1 µM, first compound 1 µM
[23] = second compound 1 µM, first compound 3.16 µM
[24] = second compound 1 µM, first compound 10 µM
[25] = second compound 3.16 µM, first compound 0.0316 µM
[26] = second compound 3.16 µM, first compound 0.1 µM
[27] = second compound 3.16 µM, first compound 0.316 µM
[28] = second compound 3.16 µM, first compound 1 µM
[29] = second compound 3.16 µM, first compound 3.16 µM
[30] = second compound 3.16 µM, first compound 10 µM
[31] = second compound 10 µM, first compound 0.0316 µM
[32] = second compound 10 µM, first compound 0.1 µM
[33] = second compound 10 µM, first compound 0.316 µM
[34] = second compound 10 µM, first compound 1 µM
[35] = second compound 10 µM, first compound 3.16 µM
[36] = second compound 10 µM, first compound 10 µM
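Also: spheroids exposed to the agents for one week.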
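For viability, T/C in this document: 100% = DMSO vehicle control wells.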

C#Cc1c(F)ccc2cc(O)cc(-c3ncc4c(N5CC6CCC(C5)N6)nc(OCC56CCCN5CC(F)C6)nc4c3F)c12 (stereo unspecified) + Cc1cccc(N(C)C(=O)C2C(O)CCN2c2nc(C)cc(C(F)(F)F)c2C#N)c1
IC50 (second compound 0.0316 µM): > 10 µM | IC50 (second compound 0.1 µM): > 10 µM | IC50 (second compound 0.316 µM): > 10 µM | IC50 (second compound 1 µM): > 10 µM | IC50 (second compound 3.16 µM): > 10 µM | IC50 (second compound 10 µM): > 10 µM | viability, T/C [1]: 107% | viability, T/C [2]: 102% | viability, T/C [3]: 104% | viability, T/C [4]: 106% | viability, T/C [5]: 95.8% | viability, T/C [6]: 91.3% | viability, T/C [7]: 107% | viability, T/C [8]: 95% | viability, T/C [9]: 94% | viability, T/C [10]: 93.7% | viability, T/C [11]: 87.9% | viability, T/C [12]: 98.7% | viability, T/C [13]: 109% | viability, T/C [14]: 108% | viability, T/C [15]: 98.5% | viability, T/C [16]: 101% | viability, T/C [17]: 95% | viability, T/C [18]: 91.7% | viability, T/C [19]: 102% | viability, T/C [20]: 107% | viability, T/C [21]: 98.7% | viability, T/C [22]: 94.5% | viability, T/C [23]: 97.8% | viability, T/C [24]: 89.2% | viability, T/C [25]: 106% | viability, T/C [26]: 101% | viability, T/C [27]: 104% | viability, T/C [28]: 104% | viability, T/C [29]: 99.5% | viability, T/C [30]: 86.2% | viability, T/C [31]: 103% | viability, T/C [32]: 97.2% | viability, T/C [33]: 98.1% | viability, T/C [34]: 94.8% | viability, T/C [35]: 100% | viability, T/C [36]: 78.4%

C=CC(=O)N1CCN(c2nc(=O)n(-c3c(C)ccnc3C(C)C)c3nc(-c4c(O)cccc4F)c(F)cc23)C(C)C1 (stereo unspecified) + Cc1cccc(N(C)C(=O)C2C(O)CCN2c2nc(C)cc(C(F)(F)F)c2C#N)c1
IC50 (second compound 0.0316 µM): > 10 µM | IC50 (second compound 0.1 µM): > 10 µM | IC50 (second compound 0.316 µM): > 10 µM | IC50 (second compound 1 µM): > 10 µM | IC50 (second compound 3.16 µM): > 10 µM | IC50 (second compound 10 µM): > 10 µM | viability, T/C [1]: 100% | viability, T/C [2]: 105% | viability, T/C [3]: 106% | viability, T/C [4]: 113% | viability, T/C [5]: 102% | viability, T/C [6]: 93.2% | viability, T/C [7]: 104% | viability, T/C [8]: 103% | viability, T/C [9]: 103% | viability, T/C [10]: 108% | viability, T/C [11]: 97.8% | viability, T/C [12]: 102% | viability, T/C [13]: 105% | viability, T/C [14]: 99.2% | viability, T/C [15]: 103% | viability, T/C [16]: 104% | viability, T/C [17]: 92.2% | viability, T/C [18]: 96.8% | viability, T/C [19]: 103% | viability, T/C [20]: 95.2% | viability, T/C [21]: 100% | viability, T/C [22]: 102% | viability, T/C [23]: 101% | viability, T/C [24]: 105% | viability, T/C [25]: 108% | viability, T/C [26]: 103% | viability, T/C [27]: 102% | viability, T/C [28]: 98.9% | viability, T/C [29]: 102% | viability, T/C [30]: 106% | viability, T/C [31]: 93.7% | viability, T/C [32]: 101% | viability, T/C [33]: 97.9% | viability, T/C [34]: 99.8% | viability, T/C [35]: 111% | viability, T/C [36]: 112%

CC(C)n1c(=O)n(C)c2cnc3cc(F)c(-c4ccc(OCCCN5CCCCC5)nc4)cc3c21 + Cc1cccc(N(C)C(=O)C2C(O)CCN2c2nc(C)cc(C(F)(F)F)c2C#N)c1
IC50 (second compound 0.0316 µM): > 10 µM | IC50 (second compound 0.1 µM): > 10 µM | IC50 (second compound 0.316 µM): > 10 µM | IC50 (second compound 1 µM): > 10 µM | IC50 (second compound 3.16 µM): > 10 µM | IC50 (second compound 10 µM): > 10 µM | viability, T/C [1]: 101% | viability, T/C [2]: 99.8% | viability, T/C [3]: 99.9% | viability, T/C [4]: 106% | viability, T/C [5]: 97.4% | viability, T/C [6]: 66.9% | viability, T/C [7]: 95.3% | viability, T/C [8]: 108% | viability, T/C [9]: 108% | viability, T/C [10]: 97.9% | viability, T/C [11]: 81.3% | viability, T/C [12]: 74.4% | viability, T/C [13]: 114% | viability, T/C [14]: 109% | viability, T/C [15]: 104% | viability, T/C [16]: 102% | viability, T/C [17]: 88.2% | viability, T/C [18]: 77% | viability, T/C [19]: 114% | viability, T/C [20]: 112% | viability, T/C [21]: 110% | viability, T/C [22]: 99.7% | viability, T/C [23]: 90.7% | viability, T/C [24]: 68.9% | viability, T/C [25]: 100% | viability, T/C [26]: 109% | viability, T/C [27]: 102% | viability, T/C [28]: 90.8% | viability, T/C [29]: 95.5% | viability, T/C [30]: 80.3% | viability, T/C [31]: 101% | viability, T/C [32]: 104% | viability, T/C [33]: 107% | viability, T/C [34]: 92.4% | viability, T/C [35]: 92.3% | viability, T/C [36]: 70.5%
